Results from patent publication US9988635B2, “Modulation of growth hormone receptor expression and insulin-like growth factor expression” (Antisense Therapeutics Limited, priority 2003, dated 2018).
In the oligonucleotide strings, read from the 5' end, every base follows the letter of its sugar. An asterisk marks phosphorothioate; unmarked linkages are phosphodiester. Other units and linkages are bracketed, terminal groups are in braces. A string of capitals states the bases alone. e = 2'-O-(2-methoxyethyl) (MOE); [5mC] = 5-methylcytosine; d = 2'-deoxy (DNA)

System: mouse growth hormone receptor mRNA
Assay: Inhibition of mouse growth hormone receptor mRNA levels in b.END cells, quantitative real-time PCR, incl. dose-response
Assay type: cell-based
Conditions: averages from three experiments
Method: The mouse brain endothelial cell line b.END was obtained from Dr. Werner Risau at the Max Plank Instititute (Bad Nauheim, Germany). b.END cells were routinely cultured in DMEM, high glucose (Gibco/Life Technologies, Gaithersburg, Md.) supplemented with 10% fetal calf serum (Gibco/Life Technologies, Gaithersburg, Md.). Cells were routinely passaged by trypsinization and dilution when they reached 90% confluence. Cells were seeded into 96-well plates (Falcon-Primaria #3872) at a density of 3000 cells/well for use in RT-PCR analysis.
When cells reached 65-75% confluency, they were treated with oligonucleotide. For cells grown in 96-well plates, wells were washed once with 100 μL OPTI-MEM™-1 reduced-serum medium (Invitrogen Corporation, Carlsbad, Calif.) and then treated with 130 μL of OPTI-MEM™-1 containing 3.75 μg/mL LIPOFECTIN™ (Invitrogen Corporation, Carlsbad, Calif.) and the desired concentration of oligonucleotide. Cells are treated and data are obtained in triplicate. After 4-7 hours of treatment at 37° C., the medium was replaced with fresh medium. Cells were harvested 16-24 hours after oligonucleotide treatment.
Total RNA was isolated using an RNEASY 96™ kit and buffers purchased from Qiagen Inc. (Valencia, Calif.) following the manufacturer's recommended procedures. Briefly, for cells grown on 96-well plates, growth medium was removed from the cells and each well was washed with 200 μL cold PBS. 150 μL Buffer RLT was added to each well and the plate vigorously agitated for 20 seconds. 150 μL of 70% ethanol was then added to each well and the contents mixed by pipetting three times up and down. The samples were then transferred to the RNEASY 96™ well plate attached to a QIAVAC™ manifold fitted with a waste collection tray and attached to a vacuum source. Vacuum was applied for 1 minute. 500 μL of Buffer RW1 was added to each well of the RNEASY 96™ plate and incubated for 15 minutes and the vacuum was again applied for 1 minute. An additional 500 μL of Buffer RW1 was added to each well of the RNEASY 96™ plate and the vacuum was applied for 2 minutes. 1 mL of Buffer RPE was then added to each well of the RNEASY 96™ plate and the vacuum applied for a period of 90 seconds. The Buffer RPE wash was then repeated and the vacuum was applied for an additional 3 minutes. The plate was then removed from the QIAVAC™ manifold and blotted dry on paper towels. The plate was then re-attached to the QIAVAC™ manifold fitted with a collection tube rack containing 1.2 mL collection tubes. RNA was then eluted by pipetting 140 μL of RNAse free water into each well, incubating 1 minute, and then applying the vacuum for 3 minutes.
Quantitation of growth hormone receptor mRNA levels was accomplished by real-time quantitative PCR using the ABI PRISM™ 7600, 7700, or 7900 Sequence Detection System (PE-Applied Biosystems, Foster City, Calif.) according to manufacturer's instructions. This is a closed-tube, non-gel-based, fluorescence detection system which allows high-throughput quantitation of polymerase chain reaction (PCR) products in real-time. As opposed to standard PCR in which amplification products are quantitated after the PCR is completed, products in real-time quantitative PCR are quantitated as they accumulate. This is accomplished by including in the PCR reaction an oligonucleotide probe that anneals specifically between the forward and reverse PCR primers, and contains two fluorescent dyes. A reporter dye (e.g., FAM or JOE, obtained from either PE-Applied Biosystems, Foster City, Calif., Operon Technologies Inc., Alameda, Calif. or Integrated DNA Technologies Inc., Coralville, Iowa) is attached to the 5′ end of the probe and a quencher dye (e.g., TAMRA, obtained from either PE-Applied Biosystems, Foster City, Calif., Operon Technologies Inc., Alameda, Calif. or Integrated DNA Technologies Inc., Coralville, Iowa) is attached to the 3′ end of the probe. […]

Substance: 227504 (antisense eT*eA*e[5mC]*e[5mC]*eT*dG*dA*dG*dA*d[5mC]*d[5mC]*d[5mC]*d[5mC]*dG*d[5mC]*eG*e[5mC]*eA*eG*e[5mC]) [compound 227504]
- % INHIB of mouse growth hormone receptor mRNA levels: 34%

Substance: 227476 (antisense eG*eT*eA*eA*eT*dT*dT*dT*d[5mC]*dT*dT*dG*dG*d[5mC]*dA*eG*eG*eG*e[5mC]*eG) [compound 227476]
- % INHIB of mouse growth hormone receptor mRNA levels: 41%

Substance: 227446 (antisense eA*e[5mC]*eA*eA*eA*dG*dA*dT*d[5mC]*d[5mC]*dA*dT*dA*d[5mC]*d[5mC]*eT*eG*eA*eG*eA) [compound 227446]
- % INHIB of mouse growth hormone receptor mRNA levels: 87%

Substance: 227467 (antisense e[5mC]*eA*eT*e[5mC]*eA*dT*dT*dG*dT*dA*dG*dA*dA*dG*dT*e[5mC]*eG*eG*eG*eT) [compound 227467]
- % INHIB of mouse growth hormone receptor mRNA levels: 33%

Substance: 227487 (antisense eT*e[5mC]*eA*eG*eG*d[5mC]*dA*dA*dA*dG*dG*d[5mC]*dA*dA*dA*eG*e[5mC]*eA*eG*eT) [compound 227487]
- % INHIB of mouse growth hormone receptor mRNA levels: 44%

Substance: 227515 (antisense eA*eA*eA*eT*eT*d[5mC]*dT*dT*dA*d[5mC]*dT*dT*dG*dT*d[5mC]*e[5mC]*e[5mC]*e[5mC]*eA*eG) [compound 227515]
- % INHIB of mouse growth hormone receptor mRNA levels: 37%

Substance: 227459 (antisense e[5mC]*eT*eG*eA*eA*d[5mC]*dT*d[5mC]*dG*d[5mC]*dT*dG*dT*dA*d[5mC]*eT*eT*eT*eT*e[5mC]) [compound 227459]
- % INHIB of mouse growth hormone receptor mRNA levels: 60%

Substance: 227485 (antisense e[5mC]*eG*eT*eG*eG*dT*dG*dT*dA*dG*dT*d[5mC]*dT*dG*dG*eG*eA*e[5mC]*eA*eG) [compound 227485]
- % INHIB of mouse growth hormone receptor mRNA levels: 45%

Substance: 227454 (antisense eA*eG*eT*eT*eG*dA*dA*dG*dT*dA*dA*d[5mC]*dA*dG*d[5mC]*eT*eG*eT*eT*eT) [compound 227454]
- % INHIB of mouse growth hormone receptor mRNA levels: 69%

Substance: 227517 (antisense e[5mC]*eT*eT*e[5mC]*eA*d[5mC]*dT*dA*dA*d[5mC]*d[5mC]*dT*dT*dG*d[5mC]*eA*eG*e[5mC]*eT*eT) [compound 227517]
- % INHIB of mouse growth hormone receptor mRNA levels: 63%

Substance: 227450 (antisense eT*eG*eG*e[5mC]*eT*dT*dT*d[5mC]*d[5mC]*d[5mC]*dT*dT*dT*dT*dA*eG*e[5mC]*eA*eT*eA) [compound 227450]
- % INHIB of mouse growth hormone receptor mRNA levels: 71%

Substance: 227492 (antisense eT*eA*eA*eA*eA*d[5mC]*dA*dT*dA*dG*dT*dT*dT*dT*dG*eG*eT*eT*eT*eA) [compound 227492]
- % INHIB of mouse growth hormone receptor mRNA levels: 7%

Substance: 227506 (antisense e[5mC]*e[5mC]*eT*e[5mC]*e[5mC]*dA*dG*dT*dA*d[5mC]*d[5mC]*dT*d[5mC]*dG*dG*eA*eG*eT*eT*eT) [compound 227506]
- % INHIB of mouse growth hormone receptor mRNA levels: 69%

Substance: 227460 (antisense eA*eA*e[5mC]*eT*eG*dG*dA*dT*dA*dT*d[5mC]*dT*dT*d[5mC]*dT*eT*e[5mC]*eA*e[5mC]*eA) [compound 227460]
- % INHIB of mouse growth hormone receptor mRNA levels: 43%

Substance: 227478 (antisense eT*eT*eT*eT*eT*dG*dG*d[5mC]*dA*dT*d[5mC]*dT*dG*dA*d[5mC]*eT*e[5mC]*eA*e[5mC]*eA) [compound 227478]
- % INHIB of mouse growth hormone receptor mRNA levels: 68%

Substance: 227449 (antisense eA*e[5mC]*eG*eA*e[5mC]*dA*d[5mC]*dT*dT*dG*dG*dT*dG*dA*dA*eT*e[5mC]*eG*eA*eG) [compound 227449]
- % INHIB of mouse growth hormone receptor mRNA levels: 69%

Substance: 227507 (antisense eG*eT*e[5mC]*e[5mC]*eT*dT*dG*d[5mC]*dT*d[5mC]*d[5mC]*dA*dG*dG*dT*eT*eA*eG*e[5mC]*eA) [compound 227507]
- % INHIB of mouse growth hormone receptor mRNA levels: 89%

Substance: 227477 (antisense e[5mC]*eA*e[5mC]*eT*eG*dT*dT*d[5mC]*dA*dT*dG*d[5mC]*dT*dG*dT*eA*eA*eT*eT*eT) [compound 227477]
- % INHIB of mouse growth hormone receptor mRNA levels: 61%

Substance: 227493 (antisense eT*e[5mC]*e[5mC]*e[5mC]*eA*dA*d[5mC]*dA*d[5mC]*dA*dG*dA*dT*dT*dT*eA*eA*eA*eA*e[5mC]) [compound 227493]
- % INHIB of mouse growth hormone receptor mRNA levels: 51%

Substance: 227461 (antisense eT*eG*e[5mC]*eT*eA*d[5mC]*dT*d[5mC]*d[5mC]*dA*dA*dA*dT*dA*dT*eT*e[5mC]*e[5mC]*eA*eA) [compound 227461]
- % INHIB of mouse growth hormone receptor mRNA levels: 75%

Substance: 227443 (antisense eT*eG*e[5mC]*eT*eT*dG*dG*d[5mC]*dA*dG*d[5mC]*dT*d[5mC]*dG*dT*eG*eG*eG*eT*eT) [compound 227443]
- % INHIB of mouse growth hormone receptor mRNA levels: 0%

Substance: 227514 (antisense eA*eT*eG*e[5mC]*eT*d[5mC]*dA*d[5mC]*dG*dT*d[5mC]*dA*dG*d[5mC]*dT*eA*eT*eT*eG*eG) [compound 227514]
- % INHIB of mouse growth hormone receptor mRNA levels: 43%

Substance: 227518 (antisense e[5mC]*eA*e[5mC]*eG*eG*d[5mC]*dT*dT*dA*d[5mC]*d[5mC]*dT*dA*dT*dT*eT*e[5mC]*eG*eT*e[5mC]) [compound 227518]
- % INHIB of mouse growth hormone receptor mRNA levels: 6%

Substance: 227496 (antisense eG*e[5mC]*eA*eT*eT*d[5mC]*dA*dA*dT*dT*dT*d[5mC]*d[5mC]*dT*dG*eA*eA*e[5mC]*eT*eG) [compound 227496]
- % INHIB of mouse growth hormone receptor mRNA levels: 51%

Substance: 227509 (antisense eG*e[5mC]*eA*eG*eT*dT*d[5mC]*dT*dA*dT*d[5mC]*dA*dG*dA*dA*e[5mC]*eT*eT*eT*eG) [compound 227509]
- % INHIB of mouse growth hormone receptor mRNA levels: 82%

Substance: 227444 (antisense eA*eT*eG*eG*e[5mC]*dT*dG*d[5mC]*dG*d[5mC]*d[5mC]*dT*dG*d[5mC]*dT*eT*eG*eG*e[5mC]*eA) [compound 227444]
- % INHIB of mouse growth hormone receptor mRNA levels: 53%

Substance: 227458 (antisense eG*eT*eA*e[5mC]*eT*dG*dA*dA*dT*dT*dT*d[5mC]*dA*dT*dA*e[5mC]*eT*e[5mC]*e[5mC]*eA) [compound 227458]
- % INHIB of mouse growth hormone receptor mRNA levels: 75%

Substance: 227472 (antisense eA*eG*eA*eG*e[5mC]*d[5mC]*dA*dA*dG*dG*dG*dA*dA*dG*d[5mC]*eA*eT*e[5mC]*eA*eT) [compound 227472]
- % INHIB of mouse growth hormone receptor mRNA levels: 42%

Substance: 227510 (antisense e[5mC]*eT*e[5mC]*e[5mC]*eA*dG*dA*d[5mC]*dG*dT*dG*dA*d[5mC]*d[5mC]*d[5mC]*eG*eA*e[5mC]*eT*e[5mC]) [compound 227510]
- % INHIB of mouse growth hormone receptor mRNA levels: 64%

Substance: 227491 (antisense eT*eA*eG*eG*eA*dA*dA*dG*dG*d[5mC]*dT*dA*d[5mC]*dT*dG*e[5mC]*eA*eT*eG*eA) [compound 227491]
- % INHIB of mouse growth hormone receptor mRNA levels: 65%

Substance: 227463 (antisense eA*eT*e[5mC]*eA*eG*d[5mC]*dA*dT*d[5mC]*dT*dT*dA*dA*dT*d[5mC]*e[5mC]*eT*eT*eT*eG) [compound 227463]
- % INHIB of mouse growth hormone receptor mRNA levels: 39%

Substance: 227508 (antisense eT*eT*e[5mC]*e[5mC]*eA*d[5mC]*dT*d[5mC]*dA*d[5mC]*d[5mC]*d[5mC]*d[5mC]*dA*dG*eT*eT*e[5mC]*eA*eT) [compound 227508]
- % INHIB of mouse growth hormone receptor mRNA levels: 51%

Substance: 227503 (antisense eT*eA*e[5mC]*e[5mC]*eT*dG*dA*dG*dA*d[5mC]*d[5mC]*d[5mC]*d[5mC]*dA*dG*eT*eT*e[5mC]*eA*eT) [compound 227503]
- % INHIB of mouse growth hormone receptor mRNA levels: 24%
